From patent publication US8138174B2, “Compounds with a combination of cannabinoid CB1 antagonism and serotonin reuptake inhibition” (Solvay Pharmaceuticals B.V., priority 2007, dated 2012)
Like-named read-outs stand apart in the source and are kept apart here.

Tests used:
serotonin reuptake sites = molecular target: T1, serotonin reuptake sites (Rattus norvegicus, UniProt P31652); assay: In vitro affinity for serotonin reuptake sites ([3H]-paroxetine binding, Habert 1985)
T1 construct: from tissue

[1] = molecular target: human cannabinoid CB1 receptor (Homo sapiens, UniProt P21554); assay: In vitro affinity for human cannabinoid CB1 receptors ([3H]CP-55,940 binding, CHO cell membranes); details: radioligand [3H]-CP-55,940; membranes of CHO cells stably transfected with human CB1 receptor; read-out: CB1 receptor binding [3H]-CP-55,940 pKi (converted)
Protocol: In vitro affinity for human cannabinoid CB1 receptors
After incubation of a freshly prepared cell membrane preparation with the [^3H]-ligand, with or without addition of compounds of the invention, separation of bound and free ligand is performed by filtration over glassfiber filters. Radioactivity on the filter is measured by liquid scintillation counting.

[2] = radioligand [3H]-paroxetine, read-out: 5-HT reuptake binding [3H]-paroxetine pKi (converted)

T1 sequence (P31652 whole entry): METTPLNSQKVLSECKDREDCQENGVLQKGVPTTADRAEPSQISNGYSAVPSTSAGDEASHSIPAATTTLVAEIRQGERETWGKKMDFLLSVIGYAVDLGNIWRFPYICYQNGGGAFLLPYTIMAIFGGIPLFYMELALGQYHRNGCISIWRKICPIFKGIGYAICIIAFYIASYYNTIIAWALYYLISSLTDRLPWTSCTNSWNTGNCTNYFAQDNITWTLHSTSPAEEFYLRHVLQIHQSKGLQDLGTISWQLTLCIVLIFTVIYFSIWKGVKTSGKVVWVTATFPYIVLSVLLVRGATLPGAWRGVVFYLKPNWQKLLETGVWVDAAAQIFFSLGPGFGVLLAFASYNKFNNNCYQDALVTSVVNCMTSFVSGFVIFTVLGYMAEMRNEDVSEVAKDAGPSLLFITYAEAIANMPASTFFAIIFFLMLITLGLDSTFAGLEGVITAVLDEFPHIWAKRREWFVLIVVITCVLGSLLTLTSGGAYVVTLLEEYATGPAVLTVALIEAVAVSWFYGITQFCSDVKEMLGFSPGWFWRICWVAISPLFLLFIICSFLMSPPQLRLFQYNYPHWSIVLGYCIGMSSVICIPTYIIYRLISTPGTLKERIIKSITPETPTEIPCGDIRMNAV
Sequence of human cannabinoid CB1 receptor (P21554 whole entry): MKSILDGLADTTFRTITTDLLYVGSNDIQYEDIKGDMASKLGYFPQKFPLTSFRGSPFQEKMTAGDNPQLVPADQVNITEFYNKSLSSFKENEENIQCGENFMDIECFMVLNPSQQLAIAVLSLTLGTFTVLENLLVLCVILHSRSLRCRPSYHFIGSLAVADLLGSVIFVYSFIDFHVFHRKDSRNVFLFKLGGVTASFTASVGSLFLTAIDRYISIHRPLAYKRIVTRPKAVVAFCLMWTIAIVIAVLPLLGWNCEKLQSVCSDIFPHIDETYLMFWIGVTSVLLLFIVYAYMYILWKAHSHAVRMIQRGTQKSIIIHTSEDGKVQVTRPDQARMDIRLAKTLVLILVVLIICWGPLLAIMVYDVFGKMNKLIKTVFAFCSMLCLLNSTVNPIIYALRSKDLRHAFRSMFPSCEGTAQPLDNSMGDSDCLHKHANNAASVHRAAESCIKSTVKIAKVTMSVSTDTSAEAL

SMILES | Ki (serotonin reuptake sites; [2]) | Ki [1] | further results
CCc1c(C(=O)NCCCCCCC(=NOCCN)c2ccc(C(F)(F)F)cc2)nc(-c2ccccc2Cl)n1-c1ccc(Cl)cc1 (racemic) [Compound 2, 2-(2-Chlorophenyl)-1-(4-chlorophenyl)-5-ethyl-1H-imidazole-4-carboxylic acid [7-(2-amino-ethoxyimino)-7-[4-(trifluoromethyl)phenyl]heptyl]amide] | 200 nM | 39.8 nM | 
NCCO/N=C(/CCCCCCN/C(=N/S(=O)(=O)c1ccc(Cl)cc1)N1CC(c2ccccc2)C(c2ccc(Cl)cc2)=N1)c1ccc(C(F)(F)F)cc1 (stereo not shown) [Compound 1] | 15.8 nM | 251 nM | affinity for 5-HT reuptake sites / serotonin reuptake inhibition (in words) (serotonin reuptake sites): as potent a serotonin reuptake inhibitor as fluoxetine
CCc1c(C(=O)N2CCN(CCCCc3c[nH]c4ccc(F)cc34)CC2)nc(-c2ccccc2Cl)n1-c1ccc(Cl)cc1 [Compound 3, [2-(2-Chlorophenyl)-1-(4-chlorophenyl)-5-ethyl-1H-imidazole-4-yl] {4-[4-(5-flouro-1H-indol-3-yl)butyl]piperazin-1-yl}methanone] | 20 nM | 31.6 nM | 
O=S(=O)(/N=C(/N1CCN(CCCCc2c[nH]c3ccc(F)cc23)CC1)N1CC(c2ccccc2)C(c2ccc(Cl)cc2)=N1)c1ccc(Cl)cc1 (stereo not shown) [Compound 4] | 25.1 nM | 251 nM | 
CN=C(NS(=O)(=O)c1ccc(Cl)cc1)N1C[C@H](c2ccccc2)C(c2ccc(Cl)cc2)=N1 [SLV319] | > 10000 nM |  | 
CCc1c(C(=O)NN2CCCCC2)nc(-c2ccccc2Cl)n1-c1ccc(Cl)cc1 [WO 03/027076] |  |  | affinity for 5-HT reuptake sites / serotonin reuptake inhibition (in words) (serotonin reuptake sites): completely inactive; Ki (serotonin reuptake sites; read-out: 5-HT reuptake binding [3H]-paroxetine pKi (converted)): > 31600 nM
CN(C)CCC=C1c2ccccc2CCc2ccccc21 [amitriptyline] |  | > 10000 nM | 
CN(C)CCCC1(c2ccc(F)cc2)OCc2cc(C#N)ccc21 (stereo not shown) [citalopram] |  | > 10000 nM | 
Fc1ccc2[nH]cc(CCCCN3CCNCC3)c2c1 [compound A] |  | > 1000 nM | Ki (serotonin reuptake sites): 1.26 nM
CN(C)CCCN1c2ccccc2CCc2ccccc21 [imipramine] |  | > 1000 nM | 
c1ccc2c(CCC3CCNCC3)c[nH]c2c1 [indalpine] |  | > 1000 nM | 5-HT reuptake binding [3H]-paroxetine pKi (serotonin reuptake sites; radioligand [3H]-paroxetine): 8.6
Fc1ccc([C@@H]2CCNC[C@H]2COc2ccc3c(c2)OCO3)cc1 [paroxetine] |  | > 1000 nM | 
Cc1c(C(=O)NN2CCCCC2)nn(-c2ccc(Cl)cc2Cl)c1-c1ccc(Cl)cc1 [rimonabant] | 5010 nM |  | 
CN[C@H]1CC[C@@H](c2ccc(Cl)c(Cl)c2)c2ccccc21 [sertraline] |  | > 10000 nM | 
